From patent US11883450B1, “Extract of Agathis robusta as antifungal agent” (KING FAISAL UNIVERSITY, priority 2023, dated 2024)
≈ marks a conversion by molar mass, not a printed value.

How the values were obtained:
Fungi stains = experiment: Minimum fungicidal concentration (MFC), positive control, strain not stated; format: cell-based
Description: Minimum fungicidal concentration (MFC) was determined according to Zinsou et al., “Development of new dermatological formulations for the treatment of cutaneous candidiasis”, Scientific African (2020), 8:e00342. Different final concentrations (0.1 to 1 mg/mL) of the bark essential oils were dissolved in DEMO and added to liquid Sabouraud dextrose broth. From the above fungal stain suspension, 1 mL was added to each essential oil tube. The tubes were incubated at room temperature for three days. Negative and positive controls were made through the addition of an equivalent amount of DMSO and Ketoconazole, respectively. MFC was calculated through the determination of the lowest concentration of the essential oil, which could inhibit the growth of the fungus. Every concentration was repeated 5 times in three different experiments, and the mean and SD of inhibition zones were calculated for each fungal strain. The MIC was determined as the lowest concentration of essential oil that inhibited fungal growth after 48 h.

C. albicans = experiment: In vivo topical fungal infection of burn wounds in Wistar rats; conditions: for percentage of fungicidal activity (wound fungal load): FIG. 5
Description: The development of in vivo topical fungal infection was determined according to Zinsou, A. et al., “Development of new dermatological formulations for the treatment of cutaneous candidiasis”, Scientific African (2020):8:e00342, and modified Ray and Wuepper, “Experimental Cutaneous Candidiasis in Rodents: II. Role of the Stratum Corneum Barrier and Serum Complement as a Mediator of a Protective Inflammatory Response”, Archives of Dermatology (1978), Vol. 114(4): 539-43. The experimental protocol was permitted by the Institutional Animal Care and Use Committee of King Faisal University (KFU-REC-2023-JAN-EA000691). All the experiments were executed in harmony with the relevant procedures and regulations of the Ethical Conduct for the Use of Animals in Research at King Faisal University. Wistar rats weighing (220±30 g) were used for the whole experiment. The animals' backs were shaved after anesthesia, and sterilized with 70% ethyl alcohol in water and left to dry. The injury was induced on the shaven back of each rat using a hot copper metal rod. The injury was swabbed with 0.5 mL broth containing […] Colony-Forming Units (CFU) of C. albicans. The essential oil topical preparations were applied once daily, starting from day 3, directly on the infected wound until the wound was completely healed (nearly 20 days). No antibiotic or antifungal preparations were administered to any of the animal groups, and the animals were monitored daily for any wound contamination. The animals' wounds were covered by sterile wound plaster, which is changed every day. […]
The animals' infected wounds (lesions) were monitored according to Masoko, et al., “In vivo antifungal effect of Combretum and Terminalia species extracts on cutaneous wound healing in immunosuppressed rats”, Pharm Biol (2010): 48:6:621-32, and Sullivan, et al., “Assessment of wound bioburden development in a rat acute wound model: Quantitative swab versus tissue biopsy”, Wounds (2004): 16: 115-123, using the following parameters: (1) Presence and type of exudate, erythema, swelling, ulceration, and crust formation: The scoring of the lesions regarding the exudate was measured using the following criteria: 0: No exudate, 1: Exudate just visible, 2: Exudate easily visible, 3: Substantial quantity of exudate, 4: Large quantity of exudate; (2) Wound contraction percentage: The lesion diameters were determined in millimeters (mm) vertically and horizontally. The lesion size percentage was calculated using the below equation: Wound contraction percentage=((Wound area day 0-Wound area day X)/Wound area day 0)×100, where X represents the number of days;
(3) Epithelialization time: The number of days needed for the wound Escher to fade away, leaving no visible wound, was used to determine the epithelialization period. (4) Evaluation of wound fungal load was determined according to Sullivan et al., supra: At the 3rd, 10th, and 15 days, each lesion was gently swabbed by a sterile swab 3 times anticlockwise with mild pressure. […] The plates were incubated for 48 hours at 37° C., and the number of yeasts on each plate was manually counted. […]

## CC(=O)N1CCN(c2ccc(OCC3COC(Cn4ccnc4)(c4ccc(Cl)cc4Cl)O3)cc2)CC1 (stereo not drawn) [Ketoconazole]
Fungi stains
  MFC: 0.037 µg/mL (≈ 0.0696 µM)
C. albicans; AUC of exudate score, FIG. 2B, topical once daily from day 3
  reduction of wound exudate related to the non-treatment lesions: 58%
C. albicans; FIG. 4
  reduction of epithelization time related to the untreated infected wound: 42%
C. albicans; by day 21, FIG. 3
  wound contraction percentage: 100%
C. albicans; day 5, related to the untreated-infected wound
  percentage of fungicidal activity (wound fungal load): 45.85%
C. albicans; day 15, related to the untreated-infected wound
  percentage of fungicidal activity (wound fungal load): 98.58%
